In patent publication US20150005264A1, “PREDICTIVE BIOMARKER FOR HYPOXIA-ACTIVATED PRODRUG THERAPY” (THRESHOLD PHARMACEUTICALS, INC., priority 2012, published 2015):

System: melanoma
Experiment: Clinical trial of TH-302 monotherapy in melanoma patients, response compared with serum CA-IX level
Format: in vivo, human
Conditions: thirty melanoma patients, pre-dose serum CA-IX (ELISA) cut-offs 28.8, 77.1, 178.3 pg/mL, FIG. 1
Procedure: In one important embodiment, the HAP is TH-302. In a clinical trial of TH-302 in melanoma patients, CA-IX levels were measured in serum samples taken from patients prior to TH-302 administration. Measured levels varied widely, with the first quartile having levels of 28.8 pg/mL CA-IX or less, the median being 77.1 pg/mL CA-IX, and the 3rd quartile having 178.3 pg/mL or less.
The data set used to generate the graphs in FIG. 1 was used to generate the graph in FIG. 2, which uses the 2×Median value of 154.2 pg/mL as the cut-off for dividing patients into high and low CA-IX level groups. Using this value as the cut-off, one sees an even more dramatic example of the predictive value of CA-IX levels in determining whether a patient will respond to TH-302 or other HAP therapy.

With `Cn1c(COP(=O)(NCCBr)NCCBr)cnc1[N+](=O)[O-]` [TH-302, (2-bromoethyl)({[(2-bromoethyl)amino][(2-nitro-3-methylimidazol-4-yl)methoxy]phosphoryl})amine] the “progression-free survival (response to TH-302) versus serum CA-IX level” value was “higher CA-IX levels correlated to a better response to TH-302”.
